Test results reported in patent publication US12509451B2, “Heteroaryl amide inhibitors of CD38” (NAPA THERAPEUTICS LTD., priority 2020, dated 2025).

Key:
[1] = target: T1, CD38 NAD+ hydrolase activity in NH7-dCas9 cells (Jurkat clone) (Homo sapiens, UniProt P28907); test: Fluorescence-based NAD+ hydrolase activity assay with human T cell line NH7-dCas9 cells-Jurkat clone (Assay 1); settings: read-out: Assay 1 Arithmetic mean IC50
T1 construct: The assay utilized CD38 expressing NH7-dCas9 cells (Jurkat clone); host or cells: NH7-dCas9 cells (Jurkat clone)
T1 sequence (P28907 1-300): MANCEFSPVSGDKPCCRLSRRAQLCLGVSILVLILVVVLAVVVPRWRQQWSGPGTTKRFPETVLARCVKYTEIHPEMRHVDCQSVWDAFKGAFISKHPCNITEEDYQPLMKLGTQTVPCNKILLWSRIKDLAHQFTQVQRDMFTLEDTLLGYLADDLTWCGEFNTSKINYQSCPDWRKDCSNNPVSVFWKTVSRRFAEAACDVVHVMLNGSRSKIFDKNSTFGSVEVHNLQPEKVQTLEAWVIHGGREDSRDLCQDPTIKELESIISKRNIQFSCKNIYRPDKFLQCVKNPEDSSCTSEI
Procedure: For the modified assay, the performance validation criteria of the assay as a High Throughput Screening (HTS): Z-factor within the plate was greater than 0.89 (optimal HTS z-factor >0.5) and the Intra-plate, inter-plate and day to day variability (CV) was less than 20%.
NAD+ hydrolase activity of a human T cell line treated with test compounds was measured using a fluorescence-based assay. NH7-dCas9 cells (Jurkat clone) were provided by the Weissman Lab (UCSF 1700 4th St., Byers Hall, Room 403B, San Francisco, CA 94158-2330). Briefly, cells were centrifuged, resuspended in 44 μl PBS/10^6 cells and plated in a 96 well black plate (CORNING) at a density of 1×10^6 per well.
Each test compound was received in a powder state and dissolved in DMSO as a 25 mM stock solution. Each test compound was serially diluted in order to generate a dose-response curve. The dilution series of each test compound in DMSO was prepared at 50 times the concentrations to be assayed. Each test compound was diluted to generate a 5-fold dilution series of 8 concentrations from 20 μM to 0.256 nM in order to assay 8 final concentrations ranging from 400 nM to 25.6 pM. One μl of the 50× concentration compound series was added to each well of the plate containing 1×10^6 cells in PBS.
Each plate had the following intra plate controls: 3 wells containing cells treated with vehicle only (DMSO), 3 wells of cells treated with the reference compound 78c at a final concentration of 50 nM and 2 wells containing only PBS (used as a background value).
(§1) The reaction was started by adding nicotinamide 1,N^6-etheno-adenine dinucleotide (Sigma Aldrich) to reach a final concentration of 80 µM. The samples were excited at 321-15 nm, and the emission of fluorescence was measured at 410-20 nm at 37° C. every minute for 1 hr in a Clariostar® microplate reader (BMG LABTECH). NAD+ hydrolase activity was calculated as the slope of the linear portion of the fluorescence-time curve using the MARS data analysis software (BMG LABTECH). The data were uploaded in the Collaborative Drug Design (CDD) Software and for each compound the IC50 was calculated by the software. Each compound was tested in 3 independent experiments on 3 separate days to establish the reproducibility of the results. For each plate, the z-factor was also calculated as a plate quality using the CDD software.

[2] = target: T2, recombinant human CD38 Protein (Homo sapiens, UniProt P28907); test: Fluorescence-based NAD+ hydrolase activity assay with human recombinant CD38 protein (Assay 3); assay type: biochemical; settings: read-out: Assay 3 Arithmetic mean IC50
T2 construct: purchased R&D System
T2 sequence (P28907 1-300): T1 sequence (P28907 1-300)
Procedure: This protocol was modified from the following references (Muller et al. (1983); (Schultz et al. (2018); (Matalonga et al. (2017); and de Oliveira et al. (2018), supra.
(§2) NAD+ hydrolase activity of the human recombinant CD38 protein treated with test compounds was measured using a fluorescence-based assay. Briefly, recombinant human CD38 Protein (R&D System) was resuspended in 44 μl/well of Sucrose-Tris Buffer (Sucrose 0.25 M, Tris pH 7.4 40 mM) and plated in a 96-well black plate (CORNING) at a density of 10 ng/well.
Each test compound was received in a powder state and dissolved in DMSO as a 25 mM stock solution. Each test compound was serially diluted in order to generate a dose-response curve. The dilution series of each test compound in DMSO was prepared at 50× the concentrations to be assayed. Each test compound was diluted to generate a 5-fold dilution series of 8 concentrations from 20 μM to 0.256 nM in order to assay 8 final concentrations ranging from ranging from 400 nM to 25.6 pM. One μl of the 50× concentration compound series was added to each well of the plate containing 10 ng protein in Sucrose-Tris buffer.
as §1, with “started” for “started by”, “nm” for “nm,”, “Each compound was tested in 3 independent experiments on 3 separate days to establish the reproducibility of the results.” left out

[3] = target: T3, recombinant mouse CD38 Protein (Mus musculus, UniProt P56528); test: Fluorescence-based NAD+ hydrolase activity assay with mouse recombinant CD38 protein (Assay 5); assay type: biochemical; settings: read-out: Assay 5 Arithmetic mean IC50
T3 construct: purchased R&D System
T3 sequence (P56528 1-304): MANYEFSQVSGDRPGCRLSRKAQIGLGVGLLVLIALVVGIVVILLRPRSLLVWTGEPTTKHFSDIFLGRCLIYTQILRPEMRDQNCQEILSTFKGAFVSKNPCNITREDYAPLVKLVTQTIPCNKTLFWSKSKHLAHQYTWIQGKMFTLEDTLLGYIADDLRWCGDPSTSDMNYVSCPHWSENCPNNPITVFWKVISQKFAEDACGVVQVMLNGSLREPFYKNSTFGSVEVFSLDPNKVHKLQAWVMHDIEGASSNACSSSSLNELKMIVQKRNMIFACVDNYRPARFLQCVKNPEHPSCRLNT
Procedure: This protocol was modified from the following references: Muller et al. (1983); Schultz et al. (2018); Matalonga et al. (2017); and de Oliveira et al. (2018), supra.
as §2, with “mouse” for “human”, “96 well” for “96-well”, “2.5” for “10”
(§3) Each test compound was received in a powder state and dissolved in DMSO as a 25 mM stock solution. Each test compound was serially diluted in order to generate a dose-response curve. The dilution series of each test compound in DMSO was prepared at 50 times the concentrations to be assayed. Each test compound was diluted to generate a 5-fold dilution series of 8 concentrations from 20 μM to 0.256 nM in order to assay 8 final concentrations ranging from 400 nM to 25.6 pM. One μl of the 50× concentration compound series was added to each well of the plate containing 2.5 ng of protein in Sucrose-Tris buffer.
Each plate had the following intra plate controls: 3 wells containing cells treated with vehicle only (DMSO), 3 wells of cells treated with the reference compounds 78c at a final concentration of 50 nM and 2 wells containing only Sucrose-Tris buffer (used as a background value).
as §1, with “started” for “started by”, “nm” for “nm,”, “Clariostar Microplate®” for “Clariostar® microplate”

[4] = target: T2, recombinant human CD38 Protein; test: Fluorescence-based NAD+ cyclase activity assay with human recombinant CD38 protein (Assay 2); assay type: biochemical; settings: read-out: Assay 2 Arithmetic mean IC50
Procedure: This protocol was modified from the de Oliveira et al., 2018 reference, supra.
as §2, with “cyclase” for “hydrolase”, “125” for “10”
as §3, with “100” for “20”, “32” for “0.256”, “2 μM” for “400 nM”, “0.64 nM.” for “25.6 pM.”, “125” for “2.5”
The reaction was started adding nicotinamide guanine dinucleotide (NGD+) (Sigma Aldrich) to reach a final concentration of 150 µM. The samples were excited at 337-15 nm, and the emission of fluorescence was measured at 442-20 nm at 37° C. every minute for 1 hr in a Clariostar microplate reader (BMG LABTECH). NAD+ cyclase activity was calculated as the slope of the linear portion of the fluorescence-time curve using the MARS data analysis software (BMG LABTECH). The data were uploaded in the Collaborative Drug Design (CDD) Software, and for each compound the IC50 was calculated by the software. For each plate, the z-factor was also calculated as a plate quality using the CDD software.

Compound | IC50 [1] | IC50 [2] | IC50 [3] | IC50 [4]
O=C(O)c1ccc(NC(=O)c2cccc(-n3ccnc3)n2)cn1 [Compound 21] | 1 to 50 nM | 1 to 50 nM | 1 to 50 nM | 
O=C(Nc1ccccn1)c1cccc(-n2ccnc2)n1 [Compound 25] | 51 to 1000 nM | 51 to 1000 nM |  | 
Cc1cc(NC(=O)c2cccc(-n3ccnc3)n2)cc(C#N)n1 [Compound 4] | < 1 nM | < 1 nM |  | 51 to 1000 nM
Cc1cc(C(=O)Nc2ccncc2)nc(-c2cncn2C)c1 [Compound 44] | < 1 nM | 1 to 50 nM | 1 to 50 nM | 
NC(=O)c1cc(NC(=O)c2cccc(-n3ccnc3)n2)ccn1 [Compound 17] | 1 to 50 nM | 1 to 50 nM | 1 to 50 nM | 
O=C(Nc1ccc(C(F)(F)F)nc1)c1cccc(-c2cncs2)n1 [Compound 46] |  | 1 to 50 nM |  | 
CCN(C(C)=O)c1ccc(NC(=O)c2cccc(-n3ccnc3)n2)cn1 [Compound 19] | 1 to 50 nM | 1 to 50 nM | 1 to 50 nM | 
O=C(Nc1cc(F)nc(F)c1)c1cccc(-n2ccnc2)n1 [Compound 5] | < 1 nM | < 1 nM |  | 51 to 1000 nM
CNC(=O)c1cc(NC(=O)c2cccc(-n3ccnc3)n2)ccn1 [Compound 23] | 1 to 50 nM | 1 to 50 nM |  | 
CCOC(=O)c1cc(NC(=O)c2cccc(-n3ccnc3)n2)ccn1 [Compound 6] | < 1 nM | 1 to 50 nM |  | 51 to 1000 nM
Cc1cncn1-c1cccc(C(=O)Nc2cccnc2)n1 [Compound 26] | 51 to 1000 nM | 51 to 1000 nM | 51 to 1000 nM | 
Cc1ccc(C(=O)Nc2cccnc2)nc1-n1ccnc1 [Compound 58, 6-(1H-imidazol-1-yl)-5-methyl-N-(pyridin-3-yl)picolinamide] | 51 to 1000 nM | 51 to 1000 nM | 1 to 50 nM | 
COCCNc1cc(NC(=O)c2cccc(-n3ccnc3)n2)ccn1 [Compound 10] | 1 to 50 nM | 1 to 50 nM |  | 

More lines, now with the values ahead:

IC50 [1] | IC50 [2] | IC50 [3] | IC50 [4] | Compound
< 1 nM | 1 to 50 nM |  |  | O=C(Nc1cccnc1)c1ccnc(-n2ccnc2)n1 [Compound 69]
< 1 nM | 1 to 50 nM | < 1 nM |  | Nc1ccc(-n2ccnc2)nc1C(=O)Nc1ccncc1 [Compound 64, 3-amino-6-(1H-imidazol-1-yl)-N-(pyridin-4-yl)picolinamide]
51 to 1000 nM | 51 to 1000 nM | 1 to 50 nM |  | COc1ccc(C(=O)Nc2cccnc2)nc1-n1ccnc1 [Compound 60]
< 1 nM | < 1 nM |  | 1000 to 10000 nM | O=C(Nc1cccnc1)c1cncc(-n2ccnc2)n1 [Compound 70]
1 to 50 nM | 1 to 50 nM | 1 to 50 nM |  | COc1ccc(-n2ccnc2)nc1C(=O)Nc1cccnc1 [Compound 63]
< 1 nM | 1 to 50 nM | < 1 nM |  | Nc1ccc(-n2ccnc2)nc1C(=O)Nc1ccnc(C(F)(F)F)c1 [Compound 66]
< 1 nM | < 1 nM |  |  | CNc1cc(C(=O)Nc2cccnc2)nc(-n2ccnc2)c1 [Compound 68]
< 1 nM | < 1 nM | < 1 nM |  | Nc1ccc(-n2ccnc2)nc1C(=O)Nc1ccnc(F)c1 [Compound 65]
